The target in experiment [1] is T1, GST tagged LXRbeta LBD (ligand binding domain) (Homo sapiens, UniProt P55055).
T1 construct: purchased Invitrogen pv4658.pps
T1 sequence (P55055 222-460 limits assumed): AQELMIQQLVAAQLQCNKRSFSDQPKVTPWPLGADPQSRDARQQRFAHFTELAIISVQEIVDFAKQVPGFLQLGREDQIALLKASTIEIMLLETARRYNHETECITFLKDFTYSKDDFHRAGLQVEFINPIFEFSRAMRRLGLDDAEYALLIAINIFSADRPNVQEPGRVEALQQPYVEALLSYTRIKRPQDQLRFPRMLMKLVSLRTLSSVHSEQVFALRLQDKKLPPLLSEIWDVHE
Kind of experiment: LanthaScreen TR-FRET Liver X Receptor Coactivator Assay, LXR beta-LBD (co-activator recruitment; IP and % Emax relative to T0901317). The conditions noted are these: for EC50: Inflection Point of co-activator recruitment, LXR beta-LBD, TR-FRET; for Emax: efficacy at max dose in relation to reference T0901317, LXR beta-LBD, read-out: LXR beta actiivty at max dose (%). Type of experiment: biochemical. In outline:
(§1)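 LXR LBD protein was added to test compounds, then a mix of fluorescein-labelled coactivator peptide and terbium anti-GST antibody. After incubation at room temperature, TR-FRET was read. Inflection point and Emax were derived relative to the reference dual agonist T0901317.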

Experiment [2] concerns the target T2, GST tagged LXRalpha LBD (ligand binding domain) (Homo sapiens, UniProt Q13133).
T2 construct: purchased Invitrogen pv4655
T2 sequence (Q13133 209-447 limits assumed): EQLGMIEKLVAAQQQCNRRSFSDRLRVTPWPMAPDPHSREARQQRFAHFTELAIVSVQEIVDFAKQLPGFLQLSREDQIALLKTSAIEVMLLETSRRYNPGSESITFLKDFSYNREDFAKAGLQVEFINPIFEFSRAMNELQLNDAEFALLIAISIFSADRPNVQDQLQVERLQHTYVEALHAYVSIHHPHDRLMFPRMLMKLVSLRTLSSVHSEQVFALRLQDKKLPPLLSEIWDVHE
Nature of the experiment: LanthaScreen TR-FRET Liver X Receptor Coactivator Assay, LXR alpha-LBD (co-activator recruitment; IP and % Emax relative to T0901317). Type of experiment: biochemical. The conditions noted are these: for LXR alpha IP (nM) / EC50: Inflection Point of co-activator recruitment, LXR alpha-LBD, TR-FRET; for Emax: efficacy at max dose in relation to reference T0901317, LXR alpha-LBD, read-out: LXR alpha actiivty at max dose (%). In outline:
as §1
In general terms: Time-resolved FRET reads energy transfer from a long-lived donor to a nearby acceptor.

As for `CC(C)[C@@]1(C(=O)N(C)CCCC2CCN(c3ccc(C(=O)N(C)C)c(Cl)n3)CC2)CCCO1` [Example 1-18, (R)-2-chloro-6-(4-(3-(2-isopropyl-N-methyl-tetrahydrofuran-2-ycarboxamido)propyl)piperidin-1-yl)-N,N-dimethylnicotinamide], in experiment [1], the EC50 turned out to be 564 nM and the Emax came to 41%. In experiment [2], the “LXR alpha IP (nM)” value is on record as “No IP” and the Emax was found to be 13%.

In the case of `CCN(CC)C(=O)c1ccc(N2CCC(CCCN(C)C(=O)[C@](O)(c3cccc(OC)c3)C(F)(F)F)CC2)cc1Cl` [Example 4-9, (R)-2-chloro-N,N-diethyl-4-(4-(3-(3,3,3-trifluoro-2-hydroxy-2-(3-methoxyphenyl)-N-methylpropanamido)propyl)piperidin-1-yl)benzamide], in experiment [1], the response was half-maximal at 72 nM (EC50) and the Emax was 40%. In experiment [2], the “LXR alpha IP (nM)” value is listed as “No IP” and the Emax worked out at 0%.

Take `COc1cccc([C@@](O)(C(=O)NCC[C@H]2CC23CCN(c2ccc(C(=O)N(C)C(C)C)c(Cl)c2)CC3)C(F)(F)F)c1` [Example 7-31, 2-chloro-N-isopropyl-N-methyl-4-((R)-1-(2-((R)-3,3,3-trifluoro-2-hydroxy-2-(3-methoxy-phenyl)propanamido)ethyl)-6-azaspiro[2.5]octan-6-yl)benzamide]: in experiment [1], the EC50 was 304 nM and the Emax is 49%. Further, in experiment [2], the “LXR alpha IP (nM)” value is recorded as “No IP” and the Emax came to 1%.

As to `CN(C)C(=O)c1ccc(N2CCC(CCCNC(=O)[C@@](O)(c3cccc(O)c3)C(F)(F)F)CC2)nc1Cl` [Example 5-21, (S)-2-chloro-N,N-dimethyl-6-(4-(3-(3,3,3-trifluoro-2-hydroxy-2-(3-hydroxyphenyl)propanamido)propyl)piperidin-1-yl)nicotinamide], the values for the EC50 in experiment [1] and in experiment [2] were 314 nM and 8720 nM, respectively. Besides, the Emax in experiment [1] was 91%; in experiment [2] it was 36%.

In the case of `COc1cccc([C@@](O)(C(=O)N(C)C[C@H](C)CC2CCN(c3ccc(C(=O)N(C)C)c(Cl)n3)CC2)C(F)(F)F)c1` (single isomer, unassigned) [Example 3-1], in experiment [1], the EC50 amounted to 25 nM and the Emax stood at 70%. Further, in experiment [2], the “LXR alpha IP (nM)” value was “No IP” and the Emax was determined as 16%.

For the compound `CN(C)C(=O)c1ccc(N2CCC([C@@H]3C[C@H]3CN(C)C(=O)[C@](O)(c3ccccc3)C(F)(F)F)CC2)cc1Cl` [Example 15-19, 2-chloro-N,N-dimethyl-4-(4-((1S,2R)-2-(((R)-3,3,3-trifluoro-2-hydroxy-N-methyl-2-phenylpropanamido)methyl)cyclopropyl)piperidin-1-yl)benzamide], in experiment [1], the EC50 worked out at 127 nM and the Emax was determined as 72%. In experiment [2], the “LXR alpha IP (nM)” value is “No IP” and the Emax came to 0%.

With `CNC(=O)c1ccc(N2CCC3(CC2)CC(CCN(C)C(=O)[C@](O)(c2cccc(OC)c2)C(F)(F)F)C3)nc1Cl` [Example 13-2, 2-chloro-N-methyl-6-(2-(2-((R)-3,3,3-trifluoro-2-hydroxy-2-(3-methoxyphenyl)-N-methylpropanamido)ethyl)-7-azaspiro[3.5]nonan-7-yl)nicotinamide], in experiment [1], the EC50 was found to be 142 nM and the Emax turned out to be 49%. Moreover, in experiment [2], the “LXR alpha IP (nM)” value is on record as “No IP” and the Emax turned out to be 1%.

On to `CN(C)C(=O)c1ccc(N2CCC(CCCN(C)C(=O)[C@@](O)(c3cccc(OC(F)(F)F)c3)C(F)(F)F)CC2)nc1Cl` [Example 1-39, (S)-2-chloro-N,N-dimethyl-6-(4-(3-(3,3,3-trifluoro-2-hydroxy-N-methyl-2-(3-(trifluoromethoxy)phenyl)propanamido)propyl)piperidin-1-yl)nicotinamide], for which, in experiment [1], the response was half-maximal at 567 nM (EC50) and the Emax was 53%. In experiment [2], the EC50 was determined as 11100 nM and the Emax stood at 34%.

Regarding `CN(CC[C@H]1CC12CCN(c1ccc(C(=O)NC3CC3)c(Cl)c1)CC2)C(=O)[C@](O)(c1ccccc1)C(F)(F)F` [Example 7-11, 2-chloro-N-cyclopropyl-4-((R)-1-(2-((R)-3,3,3-trifluoro-2-hydroxy-N-methyl-2-phenylpropanamido)ethyl)-6-azaspiro[2.5]octan-6-yl)benzamide], the EC50 in experiment [1] turned out to be 81 nM; in experiment [2] it was 1150 nM. Moreover, the Emax is 60% in experiment [1] and 42% in experiment [2].

Regarding `COc1cccc([C@@](O)(C(=O)N(C)CCCC2CCN(c3ccc(C(=O)N(C)C)c(Cl)n3)CC2)C(F)(F)F)c1` [Example 1-9, (R)-2-chloro-N,N-dimethyl-6-(4-(3-(3,3,3-trifluoro-2-hydroxy-2-(3-methoxyphenyl)-N-methylpropanamido)propyl)piperidin-1-yl)nicotinamide], in experiment [1], the midpoint of the response, the EC50, lay at 46 nM and the Emax is 69%. Also, in experiment [2], the “LXR alpha IP (nM)” value is reported as “No IP” and the Emax came to 4%.

On to `CN(C)C(=O)c1ccc(N2CCC(CCCN(C)C(=O)C3(c4ccccc4)OCCO3)CC2)nc1Cl` [Example 1-14, 2-chloro-N,N-dimethyl-6-(4-(3-(N-methyl-2-phenyl-1,3-dioxolane-2-carboxamido)propyl)piperidin-1-yl)nicotinamide], for which, in experiment [1], the midpoint of the response, the EC50, lay at 366 nM and the Emax stood at 19%. Besides, in experiment [2], the “LXR alpha IP (nM)” value is “No IP” and the Emax was determined as 0%.

For `COc1cccc([C@@](O)(C(=O)N(C)CCCC2CCN(c3ccc(C(=O)NC4CC4)c(Cl)n3)CC2)C(F)(F)F)c1` [Example 2-2, (R)-2-chloro-N-cyclopropyl-6-(4-(3-(3,3,3-trifluoro-2-hydroxy-2-(3-methoxyphenyl)-N-methylpropanamido)propyl)piperidin-1-yl)nicotinamide], in experiment [1], the EC50 amounted to 688 nM and the Emax stood at 44%. Besides, in experiment [2], the “LXR alpha IP (nM)” value is “No IP” and the Emax is 7%.

For `COc1cccc([C@@](O)(C(=O)NC[C@@H](C)CC2CCN(c3ccc(C(=O)N(C)C)c(Cl)n3)CC2)C(F)(F)F)c1` [Example 3-4, 2-chloro-N,N-dimethyl-6-(4-((S)-2-methyl-3-((R)-3,3,3-trifluoro-2-hydroxy-2-(3-methoxyphenyl)propanamido)propyl)piperidin 1-yl)nicotinamide], in experiment [1], the EC50 came to 134 nM and the Emax is 87%. In experiment [2], the “LXR alpha IP (nM)” value is recorded as “No IP” and the Emax was determined as 19%.

On to `CN(C)C(=O)c1ccc(N2CCC(CCCN(C)C(=O)[C@](O)(c3cccc(C(F)(F)F)c3)C(F)(F)F)CC2)nc1Cl` [Example 1-49, (R)-2-chloro-N,N-dimethyl-6-(4-(3-(3,3,3-trifluoro-2-hydroxy-N-methyl-2-(3-(trifluoromethyl)phenyl)pro-panamido)propyl)piperidin-1-yl)nicotinamide], for which, in experiment [1], the EC50 is 54 nM and the Emax came out at 50%. In experiment [2], the “LXR alpha IP (nM)” value is “No IP” and the Emax stood at 0%.

In the case of `CN(C)C(=O)c1ccc(N2CCC([C@H]3C[C@H](N(C)C(=O)[C@](O)(c4cccc(C5CC5)c4)C(F)(F)F)C3)CC2)nc1Cl` [Example 17-1, 2-chloro-6-(4-((1R,3r)-3-((R)-2-(3-cyclopropylphenyl)-3,3,3-trifluoro-2-hydroxy-N-methylpropanamido)cyclobutyl)piperidin-1-yl)-N,N-dimethylnicotinamide], in experiment [1], the response was half-maximal at 18 nM (EC50) and the Emax amounted to 76%. Also, in experiment [2], the “LXR alpha IP (nM)” value is “No IP” and the Emax came to 14%.

`COc1cccc([C@@](O)(C(=O)N(C)CCCC2CCN(c3ccc(C(=O)N(C)C)c(C)n3)CC2)C(F)(F)F)c1` [Example 2-20, (R)-N,N,2-trimethyl-6-(4-(3-(3,3,3-trifluoro-2-hydroxy-2-(3-methoxyphenyl)-N-methylpropanamido)propyl)piperidin-1-yl)nicotinamide]: in experiment [1], the EC50 is 271 nM and the Emax was 64%. For the same compound, in experiment [2], the “LXR alpha IP (nM)” value is reported as “No IP” and the Emax came to 0%.

In the case of `CN(C)C(=O)c1ccc(N2CCC(CCCN(C)C(=O)[C@@]3(c4ccccc4)CCCO3)CC2)nc1Cl` [Example 1-38, (S)-2-chloro-N,N-dimethyl-6-(4-(3-(N-methyl-2-phenyltetrahydrofuran-2-carboxamido)propyl)piperidin-1-yl)nicotinamide], in experiment [1], a half-maximal response (EC50) required 156 nM and the Emax came to 78%. Moreover, in experiment [2], the midpoint of the response, the EC50, lay at 1920 nM and the Emax stood at 18%.

On to `CN(C)C(=O)c1ccc(N2CCC3(CC2)CC3CCCNC(=O)[C@](O)(c2ccccc2)C(F)(F)F)cc1Cl` (stereo partly drawn) [Example 7-35, 2-chloro-N,N-dimethyl-4-(1-(3-((R)-3,3,3-trifluoro-2-hydroxy-2-phenylpropanamido)propyl)-6-azaspiro[2.5]octan-6-yl)benzamide], for which, in experiment [1], the midpoint of the response, the EC50, lay at 435 nM and the Emax is 46%. For the same compound, in experiment [2], the “LXR alpha IP (nM)” value is given as “No IP” and the Emax was 0%.

The EC50 is the midpoint of the concentration-response curve. A low value points to higher potency in that assay.

The record behind these values is patent publication US10961215B2, “N-aryl and N-heteroaryl piperidine derivatives as liver X receptor beta agonists, compositions, and their use” (Merck Sharp & Dohme Corp., priority 2016, dated 2021).
